Experimental data reported in patent publication US20250387410A1, “TREATMENT OF ANTI-VEGF REFRACTORY OPHTHALMIC RETINAL EYE CONDITIONS” (Eye Co Pty Ltd., priority 2022, published 2025).
Entries after “also recorded” stand apart in the source; their conditions may differ.

Experiments:
Assay type in all cases: cell-based, human
MIO-M1 cells = test: MTT assay, cell viability of MIO-M1 cells
Description: (§1) The immortalised retinal cells used were as follows: MIO-M1 cells (Muller cell-derived; Müller 1 Moorefields, Institute of Ophthalmology, Dr A. Limb, Institute of Ophthalmology, University College, UK); ARPE19 (RPE-derived; ATCC CRL-2302, American Tissue Culture Collection, VA, USA); and 661W cells (photoreceptor-like derived; kindly gifted by Dr Muayyad R. Al-Ubaidi, Department of Cell Biology, University of Oklahoma Health Sciences Centre, Oklahoma City, OK, USA). Cells were authenticated and validated from Cell Bank Australia.
(§2) The immortalised retinal cell lines MIO-M1, 661W and ARPE19 were used to undertake the MTT assay to assess cell metabolic activity, based on the cell's availability of NAPDH. Treatments included exposure to one of FA (10-0.01 μg/μl, provided by Professor Ben Boyd, Monash University, Australia), TA (10-0.01 μg/p, Honeywell, USA) and Dexamethasone (10-0.0001 μg/μl, Sigma-Aldrich, MO, USA). All corticosteroids used in vitro were dissolved in 20% dimethyl sulfoxide (DMSO) (Sigma-Aldrich, MO, USA) and ultrapure endotoxin 0.1M PBS (Thermo Fisher Scientific, MA, USA). At the 12-hour time point following addition of the corticosteroid, 10p of MTT reagent (Roche, Switzerland) was added to each well. To protect against light, plates were wrapped in foil and stored in the dark at 37° C. for 4 hours at 5.0% CO2. Cells were monitored using a bright field Zeiss Axiovert 200 inverted microscope (Carl Zeiss Meditec, Dublin, CA. USA) for formation of insoluble purple formazan precipitate crystals in viable cells. Subsequently 100p of MTT solubilisation solution was added and once again incubated in darkness at 37° C., 5.0% CO2 for 24 hours. Quantification of the MTT assay was performed by measuring the absorbance at 570 nm using Tecan Infinite® 200 PRO (Tecan, Mannedorf, Switzerland).

661W cells = test: MTT assay, cell viability of 661W cells
Description: as §1, §2

[1] = system: Ccl2, Il-6, Il-8 expression in MIO-M1 cells; test: IL-1β stimulation of MIO-M1 cells, cytokine gene expression by QRT-PCR; settings: 1 μg/μl steroid, 1 ng/μl IL-1β, 12 h, versus IL-1β alone
Description: as §1
IL-1β and TNF-α were administered to MIO-M1 cells to initiate an inflammatory response in order to test the anti-inflammatory properties of the selected corticosteroids. MIO-M1 cells were grown to a cell density of 50,000 cells per well in a 24 well plate using growth media and foetal bovine serum as described (Section 2.1.1). MIO-M1 cells were challenged with either 1 ng/μl of IL-1β or TNF-α (R&D Systems, MN, USA). Experimental wells were treated with either 1 μg/μl FA, TA or Dexamethasone. […]
Following purification of RNA, cDNA was synthesized using the Bioline Tetro kit (Bioline, Australia) as per the manufacturer's instructions. Quantitative Real Time Polymerase Chain Reaction (QRT-PCR) was undertaken to profile gene expression changes in animal and cell culture samples. […] Data was analysed using the QuantStudio 12K Flex Software (Applied Biosystems, USA).

[2] = 10-0.01 μg/μl, 12 h, compared to DMSO-only group

## CC(=O)OCC(=O)[C@@]1(O)CC[C@H]2[C@@H]3CCC4=CC(=O)CC[C@]4(C)[C@@]3(F)[C@@H](O)C[C@@]21C [FA, 9-α-Fluoro-11 β. 17 α, 21-trihydroxy-4-pregnene-3, 20 dione acetate]
MIO-M1 cells; 1 μg/μl
  viability of MIO-M1 cells at 1 μg/μl: does not significantly alter cell viability
MIO-M1 cells; 10 ug/uL, compared to DMSO-only group
  viability of MIO-M1 cells at the highest concentration: slight reduction
MIO-M1 cells; [2]
  viability of MIO-M1 cells (MTT assay): do not induce toxicity; also recorded: no significant effect
661W cells; 1 μg/μl
  viability of 661W cells at 1 μg/μl: does not significantly alter cell viability
661W cells; [2]
  viability of 661W cells (MTT assay): do not induce toxicity; also recorded: no significant effect
[1]
  Ccl2, Il-6, and Il-8 expression after IL-1β stimulation: drastically reduced; also recorded: suppressed to near baseline levels
